# Laboratory results taken from patent publication US20240124491A1, “METHODS AND COMPOUNDS FOR TREATING FRIEDREICH'S ATAXIA” (Design Therapeutics, Inc., priority 2021, published 2024).
# Tested on: human FXN
# Assay: EC50 assay: FXN mRNA expression by qRT-PCR in GM15850 cells after 48 hrs compound treatment
# Type: cell-based
# Settings: Homo sapiens, 48 hrs incubation, hFXN expression normalized to hGAPDH (qRT-PCR), read-out: EC50 WT (nM, 48 hr)
# In short: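 FXN transcript, normalized to GAPDH by TaqMan qRT-PCR, read out after 48 hrs of compound on GM15850 cells plated at 150,000 per well. Dosing used five 3-fold steps from 150 nM final, vehicle 0.01% DMSO.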
row,SMILES,EC50 [nM]
1,Cc1sc2c(c1C)C(c1ccc(Cl)cc1)=N[C@@H](CC(=O)NC1CCN(CCOCCOCCN(CCOCCOCCOCCOCCOCCNC(=O)CCNC(=O)c3nc(NC(=O)CCNC(=O)c4cc(NC(=O)c5nc(NC(=O)CCNC(=O)c6cc(NC(=O)c7nccn7C)cn6C)cn5C)cn4C)cn3C)CCOCCOCCN3CCC(NC(=O)C[C@@H]4N=C(c5ccc(Cl)cc5)c5c(sc(C)c5C)-n5c(C)nnc54)CC3)CC1)c1nnc(C)n1-2 [Compound 112],100 to 500
2,Cc1sc2c(c1C)C(c1ccc(Cl)cc1)=N[C@@H](CC(=O)NCCCCCN(CCCCCNC(=O)C[C@@H]1N=C(c3ccc(Cl)cc3)c3c(sc(C)c3C)-n3c(C)nnc31)CCOCCOCCOCCOCCOCCNC(=O)CCNC(=O)c1nc(NC(=O)CCNC(=O)c3cc(NC(=O)c4nc(NC(=O)CCNC(=O)c5cc(NC(=O)c6nccn6C)cn5C)cn4C)cn3C)cn1C)c1nnc(C)n1-2 [Compound 113],< 100
3,Cc1sc2c(c1C)C(c1ccc(Cl)cc1)=N[C@@H](CC(=O)NCCCCCN(CCCCCNC(=O)C[C@@H]1N=C(c3ccc(Cl)cc3)c3c(sc(C)c3C)-n3c(C)nnc31)CCOCCOCCOCCOCCOCCOCCOCCNC(=O)CCNC(=O)c1nc(NC(=O)CCNC(=O)c3cc(NC(=O)c4nc(NC(=O)CCNC(=O)c5cc(NC(=O)c6nccn6C)cn5C)cn4C)cn3C)cn1C)c1nnc(C)n1-2 [Compound 114],< 100
4,COc1nnc2ccc(N3CCC(c4ccc(OCCN5[C@H](C)CN(C(=O)COCCOCCOCCOCCOCCOCCOCCOCCNC(=O)CCNC(=O)c6nc(NC(=O)CCNC(=O)c7cc(NC(=O)c8nc(NC(=O)CCNC(=O)c9cc(NC(=O)c%10nccn%10C)cn9C)cn8C)cn7C)cn6C)C[C@@H]5C)cc4)CC3)nn12 [Compound 115],> 500
5,COc1nnc2ccc(N3CCC(c4ccc(OCCN5CCN(CCOCCOCCOCCOCCOCCOCCOCCOCCNC(=O)CCNC(=O)c6nc(NC(=O)CCNC(=O)c7cc(NC(=O)c8nc(NC(=O)CCNC(=O)c9cc(NC(=O)c%10nccn%10C)cn9C)cn8C)cn7C)cn6C)C(=O)[C@H]5C)cc4)CC3)nn12 [Compound 116],> 500
6,Cc1sc2c(c1C)C(c1ccc(Cl)cc1)=N[C@@H](CC(=O)NCCOCCOCCOCCOCCOCCOCCOCCNC(=O)c1sc3c(c1C)C(c1ccc(Cl)cc1)=N[C@@H](CC(=O)NC1CCN(CCOCCOCCOCCOCCOCCOCCOCCOCCNC(=O)CCNC(=O)c4nc(NC(=O)CCNC(=O)c5cc(NC(=O)c6nc(NC(=O)CCNC(=O)c7cc(NC(=O)c8nccn8C)cn7C)cn6C)cn5C)cn4C)CC1)c1nnc(C)n1-3)c1nnc(C)n1-2 [Compound 117],< 100
7,Cc1sc2c(c1C)C(c1ccc(N)cc1)=N[C@@H](CC(=O)N1CCC(C#CC#CC3CCN(CCOCCOCCOCCOCCNC(=O)CCNC(=O)c4nc(NC(=O)CCNC(=O)c5cc(NC(=O)c6nc(NC(=O)CCNC(=O)c7cc(NC(=O)c8nccn8C)cn7C)cn6C)cn5C)cn4C)CC3)CC1)c1nnc(C)n1-2 [Compound 119],< 100
8,COCCOCCOCCOCCOCCOCCOCCOCCOCCOCCOCCC(=O)Nc1ccc(C2=N[C@@H](CC(=O)N3CCC(C#CC#CC4CCN(CCOCCOCCOCCOCCNC(=O)CCNC(=O)c5nc(NC(=O)CCNC(=O)c6cc(NC(=O)c7nc(NC(=O)CCNC(=O)c8cc(NC(=O)c9nccn9C)cn8C)cn7C)cn6C)cn5C)CC4)CC3)c3nnc(C)n3-c3sc(C)c(C)c32)cc1 [Compound 120],100 to 500
9,Cc1sc2c(c1C)C(c1ccc(NC(=O)COCCOCCOCCN3CCN(CC4CCN(C)CC4)CC3)cc1)=N[C@@H](CC(=O)N1CCC(C#CC#CC3CCN(CCOCCOCCOCCOCCNC(=O)CCNC(=O)c4nc(NC(=O)CCNC(=O)c5cc(NC(=O)c6nc(NC(=O)CCNC(=O)c7cc(NC(=O)c8nccn8C)cn7C)cn6C)cn5C)cn4C)CC3)CC1)c1nnc(C)n1-2 [Compound 121],100 to 500
10,Cc1sc2c(c1C)C(c1ccc(Cl)cc1)=N[C@@H](CC(=O)N1CCC(C#CC#CCN(CCOCCOCCOCCOCCOCCNC(=O)CCNC(=O)c3nc(NC(=O)CCNC(=O)c4cc(NC(=O)c5nc(NC(=O)CCNC(=O)c6cc(NC(=O)c7nccn7C)cn6C)cn5C)cn4C)cn3C)CC(O)COCC(O)CO)CC1)c1nnc(C)n1-2 (stereo partly drawn) [Compound 122],100 to 500
11,Cc1sc2c(c1C)C(c1ccc(Cl)cc1)=N[C@@H](CC(=O)Nc1ccc(N3CCC(N4CCN(CCOCCOCCOCCOCCOCCOCCNC(=O)CCNC(=O)c5nc(NC(=O)CCNC(=O)c6cc(NC(=O)c7nc(NC(=O)CCNC(=O)c8cc(NC(=O)c9nccn9C)cn8C)cn7C)cn6C)cn5C)CC4)CC3)nc1)c1nnc(C)n1-2 [Compound 124],< 100
12,Cc1sc2c(c1C)C(c1ccc(Cl)cc1)=N[C@@H](CC(=O)Nc1cncc(N3CCC(N4CCN(CCOCCOCCOCCOCCOCCOCCNC(=O)CCNC(=O)c5nc(NC(=O)CCNC(=O)c6cc(NC(=O)c7nc(NC(=O)CCNC(=O)c8cc(NC(=O)c9nccn9C)cn8C)cn7C)cn6C)cn5C)CC4)CC3)c1)c1nnc(C)n1-2 [Compound 125],< 100
13,Cc1sc2c(c1C)C(c1ccc(Cl)cc1)=N[C@@H](CC(=O)N1CC(C#CC#CC3CN(CCOCCOCCOCCOCCNC(=O)CCNC(=O)c4nc(NC(=O)CCNC(=O)c5cc(NC(=O)c6nc(NC(=O)CCNC(=O)c7cc(NC(=O)c8nccn8C)cn7C)cn6C)cn5C)cn4C)C3)C1)c1nnc(C)n1-2 [Compound 126],< 100
14,Cc1sc2c(c1C)C(c1ccc(Cl)cc1)=N[C@@H](CC(=O)N1CC(C#CC#CC3CN(CCOCCOCCOCCOCCOCCOCCNC(=O)CCNC(=O)c4nc(NC(=O)CCNC(=O)c5cc(NC(=O)c6nc(NC(=O)CCNC(=O)c7cc(NC(=O)c8nccn8C)cn7C)cn6C)cn5C)cn4C)C3)C1)c1nnc(C)n1-2 [Compound 127],< 100
15,Cc1sc2c(c1C)C(c1ccc(Cl)cc1)=N[C@@H](CC(=O)NC(C)(C)C#CC#CCNCCOCCOCCOCCOCCOCCOCCNC(=O)CCNC(=O)c1nc(NC(=O)CCNC(=O)c3cc(NC(=O)c4nc(NC(=O)CCNC(=O)c5cc(NC(=O)c6nccn6C)cn5C)cn4C)cn3C)cn1C)c1nnc(C)n1-2 [Compound 130],< 100
16,Cc1c(C(=O)NCCN2CCN(C)CC2)sc2c1C(c1ccc(Cl)cc1)=N[C@@H](CC(=O)N1CCC(C#CC#CC3CCN(CCOCCOCCOCCOCCNC(=O)CCNC(=O)c4nc(NC(=O)CCNC(=O)c5cc(NC(=O)c6nc(NC(=O)CCNC(=O)c7cc(NC(=O)c8nccn8C)cn7C)cn6C)cn5C)cn4C)CC3)CC1)c1nnc(C)n1-2 [Compound 131],100 to 500
17,COCCOCCOCCOCCOCCOCCOCCOCCOCCOCCOCCNC(=O)c1sc2c(c1C)C(c1ccc(Cl)cc1)=N[C@@H](CC(=O)N1CCC(C#CC#CC3CCN(CCOCCOCCOCCOCCNC(=O)CCNC(=O)c4nc(NC(=O)CCNC(=O)c5cc(NC(=O)c6nc(NC(=O)CCNC(=O)c7cc(NC(=O)c8nccn8C)cn7C)cn6C)cn5C)cn4C)CC3)CC1)c1nnc(C)n1-2 [Compound 133],100 to 500
18,Cc1c(C(=O)N2CCC(C#CC#CC3CCN(CCOCCOCCOCCOCCNC(=O)CCNC(=O)c4nc(NC(=O)CCNC(=O)c5cc(NC(=O)c6nc(NC(=O)CCNC(=O)c7cc(NC(=O)c8nccn8C)cn7C)cn6C)cn5C)cn4C)CC3)CC2)sc2c1C(c1ccc(Cl)cc1)=N[C@@H](CC(=O)NCCN1CCN(C)CC1)c1nnc(C)n1-2 [Compound 134],100 to 500
19,Cc1cc(F)cc(C)c1Oc1ccc(C(C)(C)O)cc1-c1cn(C)c(=O)c2[nH]c(C(=O)N3CCC(C#CC#CC4CCN(CCOCCOCCOCCOCCNC(=O)CCNC(=O)c5nc(NC(=O)CCNC(=O)c6cc(NC(=O)c7nc(NC(=O)CCNC(=O)c8cc(NC(=O)c9nccn9C)cn8C)cn7C)cn6C)cn5C)CC4)CC3)cc12 [Compound 135],100 to 500
20,CC(=O)Nc1c(O[C@@H](C)c2ccccc2)cc(C=O)c(N2CCC(C#CC#CC3CCN(CCOCCOCCOCCOCCNC(=O)CCNC(=O)c4nc(NC(=O)CCNC(=O)c5cc(NC(=O)c6nc(NC(=O)CCNC(=O)c7cc(NC(=O)c8nccn8C)cn7C)cn6C)cn5C)cn4C)CC3)CC2)c1F [Compound 136],> 500
21,Cc1sc2c(c1C)C(c1ccc(Cl)cc1)=N[C@@H](CC(=O)N1CCC(C#CC#CC3CCN(CCOCCOCCNC(=O)CCNC(=O)c4nc(NC(=O)CCNC(=O)c5cc(NC(=O)c6nc(NC(=O)CCNC(=O)c7cc(NC(=O)c8nccn8C)cn7C)cn6C)cn5C)cn4C)CC3)CC1)c1nnc(C)n1-2 [Compound 138],< 100
22,Cc1sc2c(c1C)C(c1ccc(Cl)cc1)=N[C@@H](CC(=O)N1CCC(C#CC#CC3CCN(CCOCCOCCOCCNC(=O)CCNC(=O)c4nc(NC(=O)CCNC(=O)c5cc(NC(=O)c6nc(NC(=O)CCNC(=O)c7cc(NC(=O)c8nccn8C)cn7C)cn6C)cn5C)cn4C)CC3)CC1)c1nnc(C)n1-2 [Compound 139],< 100
23,Cc1sc2c(c1C)C(c1ccc(Cl)cc1)=N[C@@H](CC(=O)N1CCC(C#CC#CC3CCN(CCOCCOCCOCCOCCOCCNC(=O)CCNC(=O)c4nc(NC(=O)CCNC(=O)c5cc(NC(=O)c6nc(NC(=O)CCNC(=O)c7cc(NC(=O)c8nccn8C)cn7C)cn6C)cn5C)cn4C)CC3)CC1)c1nnc(C)n1-2 [Compound 140],< 100
24,Cc1sc2c(c1C)C(c1ccc(Cl)cc1)=N[C@@H](CC(=O)N1CCC(C#CC#CC3CCN(CCOCCOCCOCCOCCOCCOCCNC(=O)CCNC(=O)c4nc(NC(=O)CCNC(=O)c5cc(NC(=O)c6nc(NC(=O)CCNC(=O)c7cc(NC(=O)c8nccn8C)cn7C)cn6C)cn5C)cn4C)CC3)CC1)c1nnc(C)n1-2 [Compound 141],< 100
25,Cc1sc2c(c1C)C(c1ccc(Cl)cc1)=N[C@@H](CC(=O)N1CCC(C#CC#CC3CCN(CCOCCOCCOCCOCCOCCOCCOCCNC(=O)CCNC(=O)c4nc(NC(=O)CCNC(=O)c5cc(NC(=O)c6nc(NC(=O)CCNC(=O)c7cc(NC(=O)c8nccn8C)cn7C)cn6C)cn5C)cn4C)CC3)CC1)c1nnc(C)n1-2 [Compound 142],< 100
26,CC(=O)N1c2ccc(-c3ccc(C(=O)N4CCC(C#CC#CC5CCN(CCOCCOCCNC(=O)CCNC(=O)c6nc(NC(=O)CCNC(=O)c7cc(NC(=O)c8nc(NC(=O)CCNC(=O)c9cc(NC(=O)c%10nccn%10C)cn9C)cn8C)cn7C)cn6C)CC5)CC4)cc3)cc2C(Nc2ccc(Cl)cc2)C[C@@H]1C (stereo partly drawn) [Compound 144],< 100
27,CC(=O)N1c2ccc(-c3ccc(C(=O)N4CCC(C#CC#CC5CCN(CCOCCOCCOCCOCCNC(=O)CCNC(=O)c6nc(NC(=O)CCNC(=O)c7cc(NC(=O)c8nc(NC(=O)CCNC(=O)c9cc(NC(=O)c%10nccn%10C)cn9C)cn8C)cn7C)cn6C)CC5)CC4)cc3)cc2C(Nc2ccc(Cl)cc2)C[C@@H]1C (stereo partly drawn) [Compound 145],< 100
